This note sets out measurements from article PMC9785441, “A Broad Spectrum Antiparasitic Activity of Organotin (IV) Derivatives and Its Untargeted Proteomic Profiling Using Leishmania donovani” (Pathogens, 2022).

One series concerns B10R cells. Kind of series: Cytotoxicity to B10R host cells (nuclei count in the amastigote assay). The class given is cell-based. The conditions noted are these: mouse monocyte host cells, 72 h. How it is done: For the intracellular amastigote stage assay, L. donovani was incubated at a density of 1 × 10^6 parasites/mL for six days at 29 °C before infection to enrich the proportion of metacyclic promastigotes. B10R monocyte cell lines were cultured in RPMI supplemented with 10% FBS and 1%penicillin/streptomycin at 37 °C in 5% CO2. After 72 h, cells were counted with a hemocytometer and mixed with the six-day-old parasites. […] Plates were incubated at 37 °C and 5% CO2 for 72 h. Cultures were then fixed with 4% formaldehyde solution for 30 min and stained with 0.5 µg/mL DAPI (diamidino-2-phenylindole). Plates were then imaged using an ImageXpress Micro XLS automated high content imager (Molecular Devices, San Jose, CA, USA) using a 10× air objective. A custom image analysis module generated in ImageXpress was used to count the nuclei of host and parasite cells. EC50 values were obtained using the GraphPad Prism 9 Software with biological triplicates.

Series [1] relates to L. donovani intracellular amastigotes. Kind of series: L. donovani intracellular amastigote assay in B10R cells (high content imaging). In kind it is cell-based, Leishmania donovani. How it is done:
For the intracellular amastigote stage assay, L. donovani was incubated at a density of 1 × 10^6 parasites/mL for six days at 29 °C before infection to enrich the proportion of metacyclic promastigotes. B10R monocyte cell lines were cultured in RPMI supplemented with 10% FBS and 1%penicillin/streptomycin at 37 °C in 5% CO2. After 72 h, cells were counted with a hemocytometer and mixed with the six-day-old parasites. Into 384-well assay plates, that had been pre-spotted with compounds diluted 1000-fold in DMSO, with final assay concentrations ranging from 20 µM to 0.02 µM and tested in biological triplicates., 500 B10R cells and 7000 parasites were dispensed per well in a final volume of 50 µL using a Multidrop Combi liquid dispenser (ThermoScientific, Waltham, MA, USA). Plates were incubated at 37 °C and 5% CO2 for 72 h. Cultures were then fixed with 4% formaldehyde solution for 30 min and stained with 0.5 µg/mL DAPI (diamidino-2-phenylindole). Plates were then imaged using an ImageXpress Micro XLS automated high content imager (Molecular Devices, San Jose, CA, USA) using a 10× air objective. A custom image analysis module generated in ImageXpress was used to count the nuclei of host and parasite cells. EC50 values were obtained using the GraphPad Prism 9 Software with biological triplicates.

In a further series the test system is C2C12 cells. Kind of series: Cytotoxicity to C2C12 host cells. The class given is cell-based. The conditions noted are these: mouse myoblast host cells, 72 h. How it is done:
(§1) Mouse C2C12 myoblasts (ATCC CRL-1772) were cultivated in RPMI 1640 medium supplemented with 5% FBS and kept at 37 °C and 5% CO2. T. cruzi CAI-72 trypomastigotes were obtained from the supernatant of C2C12 cells infected four to seven days previously. For the assay, 500 C2C12 cells were mixed with 7500 T. cruzi parasites and seeded into 384-well plates at a 50 µL final volume. Test compounds and reference drugs (Benznidazole and K11777) were pre-spotted into the 384 well black bottom plates prior to the addition of cells and parasites with final assay concentration of 20 µM to 0.02 µM. The plates were incubated at 37 °C^, 5% CO2 for 72 h. Cultures were then fixed with 4% formaldehyde and 0.5 µg/mL DAPI (diamidino-2-phenylindole) was added for staining nucleic acids. Plates were kept protected from light for 1 h and then imaged in an ImageXpress Micro XLS automated high content imager (Molecular Devices, San Jose, CA, USA). Imaging and data analysis were performed as described for L. donovani amastigotes on biological triplicates.

Series [2] deals with G. lamblia (WB strain) trophozoites. Kind of series: G. lamblia trophozoite viability assay (CellTiter-Glo). As to conditions: 48 h. The class given is cell-based, Giardia lamblia. How it is done:
Trophozoites of G. lamblia (WB strain) were maintained in vitro as described in TYI-S-33 medium supplemented with penicillin (100 U/mL) and streptomycin (100 µg/mL). Cells were harvested during the logarithmic phase of the growth for antiparasitic assessment. Test compounds were serially diluted and transferred to a white solid bottomed 96-well tissue culture plate (E&K Scientific, Swedesboro, NJ, USA) followed by addition of 5000 G. lamblia trophozoites for a final volume of 100 µL of TYI-S-33 medium and a final concentration of compounds ranging from 50.0 to 0.39 µM. Metronidazole was used as a positive control and assay plates were incubated for 48 h at 37 °C in the GasPak EZ Anaerobic Gas Generating Pouch System (VWR). Parasite viability was measured in triplicate using the CellTiter-Glo luminescence kit in an Envision plate reader. EC50 values were obtained using the GraphPad Prism 9 Software.

Series [3] has as its system N. fowleri (KUL strain) trophozoites. Kind of series: N. fowleri trophozoite viability assay (CellTiter-Glo). As to conditions: 48 h. The class given is cell-based, Naegleria fowleri. How it is done:
N. fowleri (KUL strain) was cultured in Nelson’s medium supplemented with 10% FBS and kept at 37 °C. For all experiments, trophozoites were harvested during the logarithmic phase of growth. Test compounds were serially diluted and transferred to a white solid bottomed 96-well tissue culture plate (E&K Scientific, Swedesboro, NJ, USA) followed by addition of 10,000 N. fowleri trophozoites in Nelson’s medium in a final volume of 100 µL and a final concentration of compounds ranging from 50 to 0.39 µM. Amphotericin B was used as positive control and assay plates were incubated for 48 h at 37 °C. Parasite viability was measured as described for E. histolytica and G. lamblia. EC50 values were obtained using the GraphPad Prism 9 Software.

In series [4] the test system is L. donovani promastigotes. Kind of series: L. donovani promastigote viability assay (resazurin). In kind it is cell-based, Leishmania donovani. The conditions noted are these: for EC50: promastigotes, 48 h, read-out: EC50 L. donovani (pro). As to the method: Promastigotes of L. donovani from late log phase culture were diluted to 2.0 × 10^6/mL in M-199 containing 10% FBS, 25 mM HEPES (Gibco 15630-080), 100 µM adenine, 12 mM NaHCO3, 10 µM folic acid, 1% penicillin/streptomycin (Gibco 15140-122) as described previously. Compounds and controls were transferred from compound plates to 384 well assay plates with the use of an acoustic transfer system (ATS, EDC Biosystems, Fremont, CA, USA). Promastigotes were incubated with compounds at 29 °C for 48 h. To measure parasite viability, resazurin sodium salt (7-hydroxy-3H-phenoxazin3-one 10-oxide) was dissolved in PBS and added to each well at a volume of 5 µL (final concentration of 44 µM). After incubating for 4 h at room temperature, fluorescence (ex 571 nm/em 584 nm) was recorded with an Envision (Perkin Elmer, Waltham, MA, USA) microplate fluorescence/luminescence reader. […] For positive and negative control amphotericin B and 0.5% DMSO was used, respectively. Dose response and EC50 analyses were obtained using GraphPad Prism 9 Software (Graph Pad Software Inc., San Diego, CA, USA).

The subject of series [5] is T. cruzi (infecting C2C12). Kind of series: T. cruzi intracellular amastigote assay in C2C12 cells (high content imaging). The class given is cell-based, Trypanosoma cruzi. The conditions noted are these: for EC50: intracellular amastigotes, 72 h, read-out: EC50 T. cruzi (infecting C2C12). How it is done: as §1
Where [6] appears, read: in B10R cells, 72 h, read-out: EC50 L. donovani ntracelular amastigotes.

Like-named read-outs stand apart in the source and are kept apart here. Where only a bound is given, the exact number is not on record here.

In the case of `CCC[CH2][Sn]([Cl])([Cl])[O]C(=O)CCC(=O)Nc1ccc(OC)cc1` [MS26BuSnCl2], the CC50 in the series with B10R cells amounted to 620 nM; in the series with C2C12 cells, 18100 nM. Moreover, the EC50 was above 20000 nM in series [1] (setting [6]); above 10 µM in series [2]; above 10 µM in series [3]; above 20000 nM in series [4]; above 20000 nM in series [5].
Take `CCC[CH2][Sn]([CH2]CCC)([O]C(=O)CCC(=O)Nc1ccc(OC)cc1)[O]C(=O)CCC(=O)Nc1ccc(OC)cc1` [MS26Bu2]: the half-maximal cytotoxic concentration (CC50) amounted to 1060 nM in the series on B10R cells and 140 nM with C2C12 cells. The EC50 in series [1] (setting [6]) was 280 nM; in series [2], above 10 µM; in series [3], above 10 µM; in series [4], 760 nM; in series [5], 530 nM.
For the molecule `COc1ccc(NC(=O)CCC(=O)[O][Sn]([CH3])([CH3])[CH3])cc1` [MS26Me3], the figures for the CC50 in the series on B10R cells and with C2C12 cells were 4870 nM and 9410 nM, respectively. The concentration giving a half-maximal response (EC50) in series [1] (setting [6]) is 3260 nM; in series [2], above 10 µM; in series [3], above 10 µM; in series [4], above 20000 nM; in series [5] it was above 20000 nM.
Consider `C[CH2][Sn]([CH2]C)([CH2]C)[O]C(=O)CCC(=O)Nc1ccc(OC)cc1` [MS26Et3], for which the “L. donovani intracellular parasites eliminated” value in series [1] (5 µM) is above 95%. The EC50 is 190 nM in series [1] (setting [6]); 8 µM in series [2]; 1.4 µM in series [3]; 210 nM in series [4]; 240 nM in series [5]. In addition, in the series with C2C12 cells, the midpoint of cytotoxicity, the CC50, lay at 2790 nM. In addition, the “T. cruzi intracellular parasites eliminated” value in series [5] (5 µM) is on record as above 95%.
With `COc1ccc(NC(=O)CCC(=O)O)cc1` [MS26, 4-(4-methoxyphenylamino)-4 oxobutanoic acid], the EC50 was 1080 to 4270 nM in series [1] (Leishmania donovani, range over L. donovani and T. cruzi intracellular stages and both parent compounds, read-out: EC50 values against the intracellular stages of both parasites); 1080 nM in series [1] (setting [6]); above 10 µM in series [2] (Giardia duodenalis); above 10 µM in series [3] (Naegleria fowleri); above 20000 nM in series [4]; 3210 nM in series [5] (Trypanosoma cruzi, C2C12, 72 h). Moreover, the CC50 in the series on C2C12 cells was above 20000 nM.
In turn, `COc1ccc(NC(=O)CCC(=O)[O][Sn]([CH]2CCCCC2)([CH]2CCCCC2)[CH]2CCCCC2)cc1` [MS26Cy3] came in with a cytotoxic concentration (CC50) with B10R cells of 110 nM. Further, the EC50 in series [2] is above 10 µM; in series [3], 7.5 µM; in series [5], 300 nM. Moreover, in series [4] (Figure S1 dose response curves, RFU, read-out: IC50 against the promastigotes of L. donovani), the concentration for half-maximal inhibition (IC50) turned out to be 600 nM.
Consider `CCC[CH2][Sn]([CH2]CCC)([CH2]CCC)[O]C(=O)CCC(=O)Nc1ccc(OC)cc1` [MS26Bu3], for which the values for the CC50 in the series on B10R cells and with C2C12 cells were 170 nM and 220 nM, respectively. Also, the EC50 was 210 nM in series [1] (setting [6]); 1.03 µM in series [2]; 1.5 µM in series [3]; 220 nM in series [4]; 110 nM in series [5].
Take `C=[CH][Sn]([CH]=C)([O]C(=O)CCC(=O)Nc1ccc(OC)cc1)[O]C(=O)CCC(=O)Nc1ccc(OC)cc1` [MS26vin2]: the CC50 with B10R cells and in the series on C2C12 cells was above 20000 nM each time. The EC50 was above 20000 nM in series [1] (setting [6]); above 10 µM in series [2]; above 10 µM in series [3]; above 20000 nM in series [4]; above 20000 nM in series [5].
With `COc1ccc(NC(=O)CCC(=O)[O-])cc1.[Na+]` [MS26Na, sodium 4-(4-methoxyphenylamino)-4 oxobutanoate], the CC50 is 4550 nM in the series with B10R cells and 1610 nM with C2C12 cells. Moreover, the EC50 in series [1] (setting [6]) was 3880 nM; in series [2], above 10 µM; in series [3], above 10 µM; in series [4], 170 nM; in series [5], 4270 nM.
Take `COc1ccc(NC(=O)CCC(=O)[O][Sn]([c]2ccccc2)([c]2ccccc2)[c]2ccccc2)cc1` [MS26Ph3]: the figures for the CC50 in the series with B10R cells and in the series with C2C12 cells were 290 nM and 410 nM, respectively. Moreover, the EC50 in series [1] (setting [6]) was 9100 nM; in series [2] it was 5.3 µM; in series [3], 3.2 µM; in series [4] it was 390 nM; in series [5] it was above 20000 nM.
